{
  "source": "patent US20050080045A1",
  "about": "“Composition comprising dextrinsulfate for the treatment of sexual transmitted diseases (std)” (priority 2001, published 2005)",
  "key": {"[1]": {"test_system": "Chlamydia trachomatis Sa2f strain", "assay": "Chlamydia trachomatis cell culture assay (inclusion bodies in McCoy cell monolayers)", "assay_type": "cell-based", "protocol": "McCoy cell monolayers were prepared on coverslips in plastic Bijoux. Cells were infected with Chlamydia trachomatis either alone or in the presence of dextrin sulphate. The Sa2f strain of C. trachomatis was used. Sa2f, which causes lymphogranuloma venereum, is similar to C. trachomatis. It is a heavily passaged laboratory strain which can infect McCoy cells without the need for spinning (for most strains of C. trachomatis, it is necessary to spin the cells onto the monolayers in the presence of cyclohexamide in order for infection of the monolayers to occur).\nAfter incubation, coverslips were fixed and stained for C. trachomatis. The number of inclusion bodies per coverslip was estimated by fluorescence microscopy."}, "[2]": {"test_system": "HSV-1", "assay": "HSV plaque reduction assay in Vero cells (HSV-1)", "assay_type": "cell-based, Herpes Simplex Virus", "details": "mean of two determinations", "protocol": "(§1) Dextrin sulphate was added to the cell culture and then removed following an incubation period. Virus was then added as it is thought that dextrin sulphate attaches to cell receptors, thereby blocking subsequent viral entry. Following incubation with virus, dextrin sulphate in carboxylmethyl cellulose was added. This medium was used to form a gel layer to prevent any intracellular virus (that has bypassed the dextrin sulphate-cell receptor blocking interaction) from further infecting other cells.\n(§2) • (i) Seed 24 well cell culture plates with Vero cells (2×10^5 cells/ml/well). Prepare one plate per virus plus 2 plates for controls. • (ii) Grow cells to confluency overnight at 37° in 5% CO2. • (iii) Dilute virus as calculated to give about 100 plaques per well, a minimum volume of 5 ml per plate.\nPlate Layout. Dextrin sulphate (D.S.) concentrations are in mg per ml.\n• (iv) Pipette cell medium off all wells except the cell control wells. • (v) Inoculate the appropriate well with 1 ml Dextrin sulphate made up in Minimum Essential Medium as per above layout. • (vi) Incubate the plate at 37° C. in CO2 incubator for 1 hour. • (vii) Remove Dextrin sulphate. • (viii) Inoculate 200 μl of virus dilution per well. • (ix) Incubate the plate at 37° C. in CO2 incubator for 1 hour. • (x) Add 1 ml Dextrin sulphate in CMC to appropriate wells, incubate the plates at 37° C. in CO2 incubator for 60 hours. • (xi) Fix with 10% formalin in PBS by topping up the wells, leave for a minimum of 1 hour. • (xii) Decant formalin, rinse plate in water, stain with crystal violet for 5-10 mins, rinse and drain. Leave plates to dry before counting.\n(xiii) Count plaques, calculate IC50 by Grafit."}, "[3]": {"test_system": "HSV-2", "assay": "HSV plaque reduction assay in Vero cells (HSV-2)", "assay_type": "cell-based, Herpes Simplex Virus", "details": "mean of two determinations", "protocol": "as §1, §2\nPlate Layout. Dextrin sulphate (D.S.) concentrations are in mg per ml. […]"}},
  "data": [
    {"substance": "dextrin sulphate", "values": [
      {"measurement": "Inhibition (Expt. 2.1.1)", "setting": "[1]; Sa2f preincubated with dextrin sulphate before infecting the cell line", "value": "inhibition by dextrin"},
      {"measurement": "Inhibition (Expt. 2.1.2)", "setting": "[1]; dextrin sulphate preincubated with the cell line before infection with Sa2f", "value": "inhibition by dextrin"},
      {"measurement": "course of inhibitory activity (Expt. 2.3.1)", "setting": "[1]; larger infecting doses of Sa2f (400 inclusion bodies in 30 fields)", "value": "plateaued off"},
      {"measurement": "course of inhibitory activity (Expt. 2.3.2)", "setting": "[1]; lower infecting doses (40 inclusion bodies in 30 fields)", "value": "plateaued off"},
      {"measurement": "inhibition (Expt. 2.3.2)", "setting": "[1]; lower infecting doses (40 inclusion bodies in 30 fields), dextrin sulphate 1000 μg/ml", "value": "b) 80-90% inhibition"},
      {"measurement": "Inhibition (Expt. 2.3)", "setting": "[1]; use of different infecting doses of Sa2f", "value": "inhibition by dextrin"},
      {"measurement": "IC50", "setting": "[2]; DM-21, Laboratory HSB-1 ACV resistant", "value": 910, "unit": "µg/mL"},
      {"measurement": "IC50", "setting": "[2]; HSV-1 ACV resistant", "value": 2770, "unit": "µg/mL"},
      {"measurement": "IC50", "setting": "[2]; HSV-1 ACV sensitive", "value": 1130, "unit": "µg/mL"},
      {"measurement": "IC50", "setting": "[2]; SC-16, Laboratory HSV-1 ACV sensitive", "value": 330, "unit": "µg/mL"},
      {"measurement": "IC50", "setting": "[3]; HSV-2 ACV resistant", "value": 4, "unit": "µg/mL"},
      {"measurement": "IC50", "setting": "[3]; HSV-2 ACV sensitive", "value": 110, "unit": "µg/mL"}
    ]}
  ]
}
